Values of other authors as cited in patent publication US20130189275A1, “COMPOSITIONS AND METHODS FOR INHIBITION OF OR TREATMENT OF DENGUE VIRUS INFECTION” (priority 2010, published 2013).

## C=C(c1ccc(C(=O)O)cc1)c1cc2c(cc1C)C(C)(C)CCC2(C)C [bexarotene]
Syndecan-2
  syndecan-2 expression: downregulated

## C[C@]12CCC(=O)C[C@@H]1CC[C@@H]1[C@@H]2CC[C@]2(C)[C@@H](O)CC[C@@H]12 [dihydrotestosterone]
Syndecan-3
  syndecan-3 expression: downregulated

## O=C1NC(=O)C(c2ccccc2)(c2ccccc2)N1 [phenyloin (PHT), phenyloin]
Syndecan-4
  syndecan-4 expression: downregulated

## Cc1cccc(Nc2cc(Cl)nc(SCC(=O)O)n2)c1C [pirinixic acid]
Syndecan-1
  syndecan-1 expression: downregulated

## CC1=C(/C=C/C(C)=C/C=C/C(C)=C/C(=O)O)C(C)(C)CCC1 [tretinoin]
Syndecan-1
  syndecan-1 expression: downregulated
